The results in this text go back to ChEMBL document CHEMBL1909046, “DrugMatrix in vitro pharmacology data”.

Data set [1] is described as follows: DRUGMATRIX: Sigma2 radioligand binding (ligand: [3H] Ifenprodil). The class given is cell membranes, Rattus norvegicus, Wistar, Brain, Membrane. Particulars: Not Active = under 50% inhibition at 10 µM.
The target in another data set is Substance-P receptor (Homo sapiens, UniProt P25103). The class given is cell membranes, CHO, Membrane. Particulars: cho. Also: in other assays of this panel Not Active means under 50% inhibition at 10 µM.
Sequence of Substance-P receptor (P25103 whole entry): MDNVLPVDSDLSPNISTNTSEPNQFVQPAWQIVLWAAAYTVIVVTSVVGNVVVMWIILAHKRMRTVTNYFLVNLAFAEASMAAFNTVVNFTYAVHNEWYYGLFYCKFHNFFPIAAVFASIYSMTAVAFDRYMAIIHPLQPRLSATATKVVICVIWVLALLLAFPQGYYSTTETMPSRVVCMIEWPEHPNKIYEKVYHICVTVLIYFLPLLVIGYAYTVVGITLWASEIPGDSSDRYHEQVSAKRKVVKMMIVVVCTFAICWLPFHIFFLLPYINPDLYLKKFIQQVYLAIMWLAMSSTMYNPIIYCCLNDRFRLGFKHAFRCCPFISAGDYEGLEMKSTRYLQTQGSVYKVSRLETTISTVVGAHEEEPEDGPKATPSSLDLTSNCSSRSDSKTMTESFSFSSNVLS
The target of data set [2] is Vascular endothelial growth factor receptor 1 (Homo sapiens, UniProt P17948). The class given is cell-based. Particulars: huvec. Also: in other assays of this panel Not Active means under 50% inhibition at 10 µM.
Sequence of Vascular endothelial growth factor receptor 1 (P17948 whole entry): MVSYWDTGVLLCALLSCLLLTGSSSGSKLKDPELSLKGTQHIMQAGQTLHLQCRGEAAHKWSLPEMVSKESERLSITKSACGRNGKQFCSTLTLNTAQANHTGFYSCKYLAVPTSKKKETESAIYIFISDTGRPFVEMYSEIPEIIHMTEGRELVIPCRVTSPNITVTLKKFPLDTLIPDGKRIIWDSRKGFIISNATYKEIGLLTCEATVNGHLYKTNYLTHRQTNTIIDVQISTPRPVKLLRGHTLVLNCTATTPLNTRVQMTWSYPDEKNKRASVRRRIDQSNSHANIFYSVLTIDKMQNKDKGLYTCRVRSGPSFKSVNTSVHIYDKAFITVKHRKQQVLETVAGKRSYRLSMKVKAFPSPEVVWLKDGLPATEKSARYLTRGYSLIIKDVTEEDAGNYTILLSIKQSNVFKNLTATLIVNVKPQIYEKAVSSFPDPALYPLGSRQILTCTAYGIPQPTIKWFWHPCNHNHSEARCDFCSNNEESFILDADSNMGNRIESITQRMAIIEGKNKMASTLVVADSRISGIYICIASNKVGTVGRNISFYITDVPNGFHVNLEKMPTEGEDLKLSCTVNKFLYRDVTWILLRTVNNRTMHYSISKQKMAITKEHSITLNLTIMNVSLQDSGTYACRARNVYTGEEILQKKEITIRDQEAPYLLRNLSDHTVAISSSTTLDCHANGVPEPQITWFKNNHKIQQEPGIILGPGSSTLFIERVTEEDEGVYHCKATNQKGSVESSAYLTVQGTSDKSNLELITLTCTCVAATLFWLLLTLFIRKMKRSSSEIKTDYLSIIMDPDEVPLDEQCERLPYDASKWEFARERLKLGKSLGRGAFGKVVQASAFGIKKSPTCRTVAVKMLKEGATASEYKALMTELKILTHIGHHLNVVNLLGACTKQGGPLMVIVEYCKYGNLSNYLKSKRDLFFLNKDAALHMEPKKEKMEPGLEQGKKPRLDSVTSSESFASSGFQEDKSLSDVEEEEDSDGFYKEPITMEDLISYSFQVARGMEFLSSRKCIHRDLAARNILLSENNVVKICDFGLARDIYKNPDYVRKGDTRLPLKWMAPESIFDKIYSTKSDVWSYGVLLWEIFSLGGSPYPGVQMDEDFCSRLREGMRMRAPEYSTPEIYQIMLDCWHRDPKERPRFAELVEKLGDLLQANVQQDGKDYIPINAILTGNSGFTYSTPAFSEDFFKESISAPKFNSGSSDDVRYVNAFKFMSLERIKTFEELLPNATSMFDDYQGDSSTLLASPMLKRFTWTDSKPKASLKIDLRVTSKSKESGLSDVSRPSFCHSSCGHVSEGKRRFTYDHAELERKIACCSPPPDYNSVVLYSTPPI
The target in a further data set is T1, Endothelin-1 receptor (Homo sapiens, UniProt P25101). Also: in other assays of this panel Not Active means under 50% inhibition at 10 µM.
T1 sequence (P25101 whole entry): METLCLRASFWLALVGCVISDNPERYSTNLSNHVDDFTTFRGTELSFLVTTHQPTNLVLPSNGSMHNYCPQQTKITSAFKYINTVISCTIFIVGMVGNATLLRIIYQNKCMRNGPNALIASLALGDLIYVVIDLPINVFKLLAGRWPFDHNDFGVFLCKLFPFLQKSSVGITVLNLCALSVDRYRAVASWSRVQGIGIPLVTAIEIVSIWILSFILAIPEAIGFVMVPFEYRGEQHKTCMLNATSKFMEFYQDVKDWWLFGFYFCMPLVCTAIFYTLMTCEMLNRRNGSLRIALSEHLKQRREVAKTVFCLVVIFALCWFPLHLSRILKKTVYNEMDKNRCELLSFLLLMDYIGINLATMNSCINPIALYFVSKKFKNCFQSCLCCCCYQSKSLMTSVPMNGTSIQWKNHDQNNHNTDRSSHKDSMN
Format: cell membranes, CHO-K1, Membrane. The settings on record: cho-k1.

A short description of data set [3]: DRUGMATRIX: Phosphodiesterase PDE3 enzyme inhibition (substrate: [3H]cAMP + cAMP). Format: tissue-based, Homo sapiens. Particulars: platelet; Not Active = under 50% inhibition at 10 µM.
Data set [4] deals with Mitogen-activated protein kinase 14 (Homo sapiens, UniProt Q16539). Also on record: species or system Escherichia coli.
Sequence of Mitogen-activated protein kinase 14 (Q16539 whole entry): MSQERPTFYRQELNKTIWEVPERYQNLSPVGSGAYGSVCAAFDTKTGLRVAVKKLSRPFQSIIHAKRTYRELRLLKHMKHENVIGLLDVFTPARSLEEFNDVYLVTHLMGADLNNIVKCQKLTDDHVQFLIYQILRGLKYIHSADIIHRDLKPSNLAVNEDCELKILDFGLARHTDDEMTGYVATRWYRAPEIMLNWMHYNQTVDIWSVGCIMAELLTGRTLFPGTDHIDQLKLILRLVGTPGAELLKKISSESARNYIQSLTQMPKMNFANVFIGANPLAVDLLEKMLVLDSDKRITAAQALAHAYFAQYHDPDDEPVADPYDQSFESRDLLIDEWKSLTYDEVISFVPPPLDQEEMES
For the next data set, the target named is Acetylcholinesterase (Homo sapiens, UniProt P22303). The data set can be described thus: DRUGMATRIX: Acetylcholinesterase enzyme inhibition (substrate: acetylthiocholine). Format: cell-based, HEK293. Particulars: hek293; Not Active = under 50% inhibition at 10 µM.
Sequence of Acetylcholinesterase (P22303 whole entry): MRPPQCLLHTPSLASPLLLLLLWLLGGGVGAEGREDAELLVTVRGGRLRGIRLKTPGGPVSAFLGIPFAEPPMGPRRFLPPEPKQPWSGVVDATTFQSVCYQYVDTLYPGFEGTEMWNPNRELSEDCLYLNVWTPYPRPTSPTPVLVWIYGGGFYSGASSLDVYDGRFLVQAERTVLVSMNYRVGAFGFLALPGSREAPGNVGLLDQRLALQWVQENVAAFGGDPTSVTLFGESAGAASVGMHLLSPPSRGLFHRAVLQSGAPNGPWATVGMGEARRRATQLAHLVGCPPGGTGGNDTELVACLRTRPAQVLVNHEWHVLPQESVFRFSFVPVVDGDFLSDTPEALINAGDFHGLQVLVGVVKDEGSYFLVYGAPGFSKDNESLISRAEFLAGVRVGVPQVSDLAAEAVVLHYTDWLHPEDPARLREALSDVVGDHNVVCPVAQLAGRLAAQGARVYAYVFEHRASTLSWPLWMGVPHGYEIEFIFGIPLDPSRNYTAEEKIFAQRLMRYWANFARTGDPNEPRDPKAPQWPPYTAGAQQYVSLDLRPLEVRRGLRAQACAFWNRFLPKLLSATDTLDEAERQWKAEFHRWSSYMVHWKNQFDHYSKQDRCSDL
For a further data set, the target named is Cytochrome P450 2C9 (Homo sapiens, UniProt P11712). Particulars: bti-tn-5b1-4. Also: in other assays of this panel Not Active means under 50% inhibition at 10 µM.
Sequence of Cytochrome P450 2C9 (P11712 whole entry): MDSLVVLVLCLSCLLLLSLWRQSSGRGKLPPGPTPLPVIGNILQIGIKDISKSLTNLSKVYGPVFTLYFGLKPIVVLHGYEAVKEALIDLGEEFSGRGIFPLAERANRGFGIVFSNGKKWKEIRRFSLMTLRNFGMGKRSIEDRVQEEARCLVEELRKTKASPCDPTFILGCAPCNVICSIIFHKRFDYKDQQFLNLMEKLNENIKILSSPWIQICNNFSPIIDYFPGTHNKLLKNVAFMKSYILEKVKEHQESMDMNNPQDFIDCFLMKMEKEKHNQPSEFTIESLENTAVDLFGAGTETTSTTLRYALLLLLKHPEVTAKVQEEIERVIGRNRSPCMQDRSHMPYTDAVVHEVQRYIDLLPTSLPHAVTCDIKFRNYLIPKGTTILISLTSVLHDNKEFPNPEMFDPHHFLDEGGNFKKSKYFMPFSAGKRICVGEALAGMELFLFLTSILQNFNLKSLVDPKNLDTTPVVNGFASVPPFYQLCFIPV

SMILES strings stand for the structures.

The IC50 is the concentration needed to halve the response being measured. In general, Ki refers to a dissociation constant, usually derived from enzyme kinetics or from competition with a known ligand. Regarding `O=C(CCCN1CC=C(n2c(=O)[nH]c3ccccc32)CC1)c1ccc(F)cc1` [DROPERIDOL], the IC50 is 3.28 µM in data set [1] (read-out: IC50); “Not Active” against Substance-P receptor; “Not Active” in data set [2]; “Not Active” against Endothelin-1 receptor; “Not Active” in data set [3]; “Not Active” in data set [4]. The IC50 entry on Acetylcholinesterase and against Cytochrome P450 2C9 was “Not Active” each time. The Ki was 2.02 µM in data set [1] (read-out: Ki), “Not Active” in data set [3] and “Not Active” at Cytochrome P450 2C9.
Turning to `CC(C)[C@H]1C(=O)N2CCC[C@H]2[C@]2(O)O[C@](NC(=O)[C@@H]3C=C4c5cccc6[nH]cc(c56)C[C@H]4N(C)C3)(C(C)C)C(=O)N12` [ERGOCORNINE], the IC50 result (in data set [1]; at Substance-P receptor; in data set [2]; at Endothelin-1 receptor; in data set [3]; in data set [4]) was “Not Active” in each case. The IC50 result against Acetylcholinesterase and against Cytochrome P450 2C9 was “Not Active” in each case. Moreover, the Ki result (in data set [1]; in data set [3]; on Cytochrome P450 2C9) was “Not Active” throughout.
On to `OC(Cn1cncn1)(Cn1cncn1)c1ccc(F)cc1F` [FLUCONAZOLE], for which the IC50 result (in data set [1]; against Substance-P receptor; in data set [2]; against Endothelin-1 receptor; in data set [3]; in data set [4]) was “Not Active” each time. In addition, the IC50 result on Acetylcholinesterase and against Cytochrome P450 2C9 was “Not Active” throughout. Besides, the Ki result (in data set [1]; in data set [3]; on Cytochrome P450 2C9) was “Not Active” in each case.
For `CC(C)C(=O)Nc1ccc([N+](=O)[O-])c(C(F)(F)F)c1` [FLUTAMIDE], the IC50 result (in data set [1]; on Substance-P receptor; in data set [2]; against Endothelin-1 receptor; in data set [3]; in data set [4]) was “Not Active” each time. Further, the IC50 entry on Acetylcholinesterase and at Cytochrome P450 2C9 was “Not Active” each time. For the same molecule, the Ki entry (in data set [1]; in data set [3]; on Cytochrome P450 2C9) was “Not Active” throughout.
Turning to `CC1(C)O[C@@H]2C[C@H]3[C@@H]4CCC5=CC(=O)CC[C@]5(C)[C@@]4(F)[C@@H](O)C[C@]3(C)[C@]2(C(=O)CCl)O1` [HALCINONIDE], the IC50 result (in data set [1]; at Substance-P receptor; in data set [2]; on Endothelin-1 receptor; in data set [3]; in data set [4]) was “Not Active” each time. Moreover, the IC50 result at Acetylcholinesterase and against Cytochrome P450 2C9 was “Not Active” throughout. Also, the Ki entry (in data set [1]; in data set [3]; at Cytochrome P450 2C9) was “Not Active” in each case.
Take `O=c1[nH]c(=O)n([C@H]2C[C@H](O)[C@@H](CO)O2)cc1I` [IDOXURIDINE]: the IC50 result (in data set [1]; at Substance-P receptor; in data set [2]; against Endothelin-1 receptor; in data set [3]; in data set [4]) was “Not Active” throughout. For the same molecule, the IC50 result against Acetylcholinesterase and at Cytochrome P450 2C9 was “Not Active” in each case. The Ki result (in data set [1]; in data set [3]; at Cytochrome P450 2C9) was “Not Active” each time.
As to `CC1Cc2ccccc2N1NC(=O)c1ccc(Cl)c(S(N)(=O)=O)c1` (configuration not stated) [INDAPAMIDE], the IC50 result (in data set [1]; on Substance-P receptor; in data set [2]; on Endothelin-1 receptor; in data set [3]; in data set [4]) was “Not Active” in each case. The IC50 entry against Acetylcholinesterase and against Cytochrome P450 2C9 was “Not Active” each time. Also, the Ki result (in data set [1]; in data set [3]; at Cytochrome P450 2C9) was “Not Active” each time.
For the molecule `Nc1nc(N)nc(-c2cc(Cl)ccc2Cl)n1.O=C(O)/C=C\C(=O)O` [IRSOGLADINE MALEATE], the IC50 entry (in data set [1]; at Substance-P receptor; in data set [2]; against Endothelin-1 receptor; in data set [3]; in data set [4]) was “Not Active” in each case. Further, the IC50 result at Acetylcholinesterase and against Cytochrome P450 2C9 was “Not Active” each time. Moreover, the Ki result (in data set [1]; in data set [3]; on Cytochrome P450 2C9) was “Not Active” in each case.
Turning to `CCC(C)n1ncn(-c2ccc(N3CCN(c4ccc(OCC5COC(Cn6cncn6)(c6ccc(Cl)cc6Cl)O5)cc4)CC3)cc2)c1=O` (configuration not stated) [ITRACONAZOLE], the half-inhibitory concentration (IC50) entry (in data set [1]; on Substance-P receptor; in data set [2]; against Endothelin-1 receptor; in data set [3]; in data set [4]) was “Not Active” throughout. The IC50 result at Acetylcholinesterase and on Cytochrome P450 2C9 was “Not Active” each time. Further, the Ki entry (in data set [1]; in data set [3]; at Cytochrome P450 2C9) was “Not Active” in each case.
Take `CCCCN1CCCC[C@H]1C(=O)Nc1c(C)cccc1C` [LEVOBUPIVACAINE]: the IC50 result (in data set [1]; at Substance-P receptor; in data set [2]; against Endothelin-1 receptor; in data set [3]; in data set [4]) was “Not Active” in each case. The IC50 entry on Acetylcholinesterase and at Cytochrome P450 2C9 was “Not Active” throughout. Further, the Ki entry (in data set [1]; in data set [3]; at Cytochrome P450 2C9) was “Not Active” throughout.
For the molecule `Sc1ncnc2nc[nH]c12` [MERCAPTOPURINE ANHYDROUS], the IC50 result (in data set [1]; against Substance-P receptor; in data set [2]; at Endothelin-1 receptor; in data set [3]; in data set [4]) was “Not Active” throughout. The IC50 entry against Acetylcholinesterase and at Cytochrome P450 2C9 was “Not Active” throughout. The Ki result (in data set [1]; in data set [3]; at Cytochrome P450 2C9) was “Not Active” in each case.
With `C[C@](N)(Cc1ccc(O)c(O)c1)C(=O)O` [METHYLDOPA], the IC50 result (in data set [1]; against Substance-P receptor; in data set [2]; on Endothelin-1 receptor; in data set [3]; in data set [4]) was “Not Active” in each case. Further, the IC50 entry against Acetylcholinesterase and at Cytochrome P450 2C9 was “Not Active” throughout. Moreover, the Ki result (in data set [1]; in data set [3]; on Cytochrome P450 2C9) was “Not Active” each time.
Turning to `C[C@]12CCC(=O)C=C1CC[C@@H]1[C@@H]2CC[C@@]2(C)[C@H]1CC[C@]2(C)O` [METHYLTESTOSTERONE], the IC50 result (in data set [1]; against Substance-P receptor; in data set [2]; on Endothelin-1 receptor; in data set [3]; in data set [4]) was “Not Active” each time. Also, the IC50 result against Acetylcholinesterase and on Cytochrome P450 2C9 was “Not Active” in each case. Moreover, the Ki result (in data set [1]; in data set [3]; on Cytochrome P450 2C9) was “Not Active” throughout.
For `Cc1ccccc1N1C(=O)c2cc(S(N)(=O)=O)c(Cl)cc2NC1C` (configuration not stated) [METOLAZONE], the IC50 result (in data set [1]; against Substance-P receptor; in data set [2]; on Endothelin-1 receptor; in data set [3]; in data set [4]) was “Not Active” each time. In addition, the IC50 result on Acetylcholinesterase and against Cytochrome P450 2C9 was “Not Active” throughout. Further, the Ki entry (in data set [1]; in data set [3]; on Cytochrome P450 2C9) was “Not Active” throughout.
As to `COCCc1ccc(OCC(O)CNC(C)C)cc1` (configuration not stated) [METOPROLOL], the IC50 entry (in data set [1]; against Substance-P receptor; in data set [2]; against Endothelin-1 receptor; in data set [3]; in data set [4]) was “Not Active” each time. Further, the IC50 entry against Acetylcholinesterase and against Cytochrome P450 2C9 was “Not Active” in each case. Further, the Ki result (in data set [1]; in data set [3]; at Cytochrome P450 2C9) was “Not Active” throughout.
For the molecule `CCn1cc(C(=O)O)c(=O)c2cc(F)c(N3CCNCC3)cc21` [NORFLOXACIN], the IC50 result (in data set [1]; on Substance-P receptor; in data set [2]; on Endothelin-1 receptor; in data set [3]; in data set [4]) was “Not Active” each time. The IC50 entry on Acetylcholinesterase and against Cytochrome P450 2C9 was “Not Active” in each case. Further, the Ki result (in data set [1]; in data set [3]; on Cytochrome P450 2C9) was “Not Active” in each case.
For `NC1=NC(=O)C(c2ccccc2)O1` (configuration not stated) [PEMOLINE], the IC50 result (in data set [1]; against Substance-P receptor; in data set [2]; at Endothelin-1 receptor; in data set [3]; in data set [4]) was “Not Active” throughout. For the same molecule, the IC50 entry against Acetylcholinesterase and at Cytochrome P450 2C9 was “Not Active” each time. In addition, the Ki result (in data set [1]; in data set [3]; at Cytochrome P450 2C9) was “Not Active” throughout.
